Experimental data from patent US4474783A, “Cyclopropylmethyl piperazines, the process for preparing the same and their use in therapeutics” (Innothera, priority 1980, dated 1984).

Key:
[1] = acute toxicity, intravenous, male mice (LD50, Litchfield and Wilcoxon); details: mouse, in vivo; for LD50 at 168 h: i.v., 10 animals per group, 7 days observation, 95% confidence limit in brackets
Description: A toxicological study was also carried out on the compounds according to the invention.
More particularly, the acute toxicity was studied by introduction into the veins of male mice (10 animals per group), E.O.P.S. of the Swiss strain (bred by EVIC-CEBA).
The compounds to be tested were rendered soluble in physiological serum at variable concentrations and the solution obtained injected into the veins in an amount of 10 ml per kg of body weight. Administration was carried out in 20 seconds.
The animals were kept under clinical observation for three hours after administration and then daily for 7 days.
The lethal doses 50 (LD50) were calculated using the method of Litchfield and Wilcoxon (J. Pharmacol. Exp. Therap., 96-99, 1949) on the basis of the different mortality rates observed.

[2] = test system: isolated left auricle of the Guinea pig; experiment: inotropic activity: contractile force of isolated, electrically stimulated left auricle (Lumley, Broadley and Levy technique; cumulative method of Van Rossum); details: for EC50 / Emax: Cavia porcellus; for EC50 / Inotropic action pD2: 36° C., cumulative concentrations, minimum of three dose-action curves; for EC50: read-out: Inotropic action pD2 (converted); for Emax / Inotropic action α (intrinsic activity): relative to dopamine; for Emax: α=1, read-out: Inotropic action α (intrinsic activity); for Inotropic action α (intrinsic activity): α=1
From the text: The technique used is that of P. Lumley, K. J. Broadley and G. P. Levy described in Cardiovascular Research, 11, 17-25, 1977. This technique is used to study the β1 cardiac inotrope function; the β1 receptors being cardiac in the Guinea pig as in man, the results obtained with the Guinea pig are applicable to man.
Guinea pigs of either sex are killed by a knock and bled; the left auricle is rapidly removed and immediately immersed in a Kreibs-Henseleit solution, the temperature being thermostatically maintained at 36° C. and aerated by a mixture of O2 and CO2 (95% and 5%). Two linen threads are attached to its ends: one is used to make contact between the auricle and a silver negative stimulating electrode, the other serves to connect the preparation to an isometric myograph (F-50 NARCO) and then to a recording system (Physiograph type M-K III NARCO).
Some 60 minutes are needed to ensure stability of the preparation.
Throughout the test, the auricle is activated electrically by a neurostimulator (Equipment Industriel II): voltage: supramaximum--width: 5 milli/sec.--frequency: 90 to 120 beats per minute.
Agonists, reference substances or compounds according to the invention, are added to the nutrient medium using the cumulative method of Van Rossum (Arch. Inter. Pharmacodyn., 143, 299-330, 1963). After adding each given amount of agonists, three minutes are allowed to pass before a further given amount of the product under study is added according to the method described above. The response of the organ to each concentration was assessed by the resultant increase in contractile force measured in gram. This was expressed as a percentage of the maximum increase (100%) for each compound and a dose-action curve was plotted. The agonist effect was quantified by calculating pD2 (E. J. Ariens and J. M. Van Rossum., Arch. Intern. Pharmacodyn. CX, No. 2, 2, 19 and Arch. Inter. Pharmacodyn. 143, 299-330, 1963) which characterizes the affinity of the compound under test for the receptors.
The agonist effect was also characterized by the intrinsic activity […] which defines the relative power of the agonist with respect to a standard which, in the tests, was dopamine, the intrinsic activity of which is taken arbitrarily to be α=1.
The results obtained are shown in table II below, it being assumed that:
the higher the value of pD2 and the more marked the affinity of the compound under test for the receivers, and
the higher the value of α, the better is the intrinsic activity.

Row | Structure (SMILES) | LD50 at 168 h [1] [mg/kg] | EC50 [2] [µM] | Emax [2] [%] | further results
1 | CCCCCN1CCN(CC2CC2)CC1 [Code No. 4] | 37.5 | – | – | –
2 | CC1CN(CC2CC2)CCN1Cc1ccc2c(c1Cl)OCO2 (centres unmarked) [compound 36] | 65 | – | – | –
3 | CCOC(=O)N1CCN(CC2CC2)CC1 [6a] | 41 | 1260 | 58 | –
4 | c1ccc(CN2CCN(CC3CC3)CC2)cc1 [compound 14] | 46 | – | – | –
5 | COc1cc(C(=O)N2CCN(CC3CC3)CC2)cc(OC)c1OC [compound 16] | – | – | – | Inotropic action pD2 [2]: 5.06; Inotropic action α (intrinsic activity) [2]: 0.52; mortality at 168 h ([1]; 100 mg/kg i.v.): 30%
6 | CC1CN(CC2CC2)CCN1CCN1CCOCC1 (centres unmarked) [compound 29] | 250 | – | – | –
7 | CC1CN(CC2CC2)CCN1CCN1CCCCC1 (centres unmarked) [compound 27] | 155 | 47.9 | 40 | –
8 | CC1CN(CC2CC2)CCN1Cc1ccc2c(c1)OCO2 (centres unmarked) [compound 35] | 77 | 5.25 | 17 | –
9 | O=C(c1ccc2c(c1)OCO2)N1CCN(CC2CC2)CC1 [compound 15] | 155 | 363 | 88 | –
10 | CN1CCN(CC2CC2)CC1 [Code No. 2] | 320 | 112 | 48 | –
11 | CC(=O)c1ccc(N2CCN(CC3CC3)CC2)cc1 [compound 12] | 90 | 55 | 82 | –
12 | CCN(CC)CCCN1CCN(CC2CC2)CC1C (centres unmarked) [compound 30] | 135 | – | – | –
13 | COc1ccc(OCC(=O)N2CCN(CC3CC3)CC2)cc1 [compound 21] | 115 | 22.4 | 69 | –
14 | CC1CN(CC2CC2)CCN1Cc1csc2ccccc12 (centres unmarked) [compound 37] | 40 | – | – | –
15 | CC1CN(CC2CC2)CCN1CCN1CCCCCC1 (centres unmarked) [compound 28] | 95 | – | – | –
16 | CC1CN(CC2CC2)CCN1CCN(C)C (centres unmarked) [compound 24] | 200 | – | – | –
17 | CC1CN(CC2CC2)CCN1 (centres unmarked) [compound 23] | 280 | 178 | 75 | –
18 | COc1ccccc1N1CCN(CC2CC2)CC1 [compound 10] | 34 | – | – | –
19 | COc1cc(C(=O)N2CCN(CC3CC3)CC2)cc(OC)c1OC [compound 17] | 245 | – | – | Inotropic action pD2 [2]: 3.50; Inotropic action α (intrinsic activity) [2]: 0.19

Row | Structure (SMILES) | LD50 at 168 h [1] [mg/kg] | EC50 [2] [µM] | Emax [2] [%] | further results
20 | CC1CN(CC2CC2)CCN1CCN1CCCC1 (centres unmarked) [compound 26] | 158 | 14.1 | 32 | –
21 | COc1cc(C(=O)N2CCN(CC3CC3)CC2C)cc(OC)c1OC(C)=O (centres unmarked) [compound 39] | 225 | 25.7 | 69 | –
22 | CC1CN(CC2CC2)CCN1CCCN1CCCC1 (centres unmarked) [compound 31] | 165 | 26.9 | 25 | –
23 | C1CC1CN1CCN(CC2CC2)CC1 [3a] | 110 | 30.2 | 69 | –
24 | CC(CN1CCN(CC2CC2)CC1)C(=O)O (centres unmarked) [compound 7] | 190 | – | – | –
25 | CC1CN(CC2CC2)CCN1CCCN1CCCCCC1 (centres unmarked) [compound 33] | 130 | – | – | –
26 | O=C(C=Cc1cccc(C(F)(F)F)c1)N1CCN(CC2CC2)CC1 [compound 19] | 95 | – | – | –
27 | CCN(CC)CCN1CCN(CC2CC2)CC1C (centres unmarked) [compound 25] | 150 | – | – | –
28 | O=C(COc1ccc(F)cc1)N1CCN(CC2CC2)CC1 [compound 22] | 100 | 17.8 | 48 | –
29 | CC1CN(CC2CC2)CCN1CCCN1CCCCC1 (centres unmarked) [compound 32] | 162 | 0.525 | 12 | –
30 | FC(F)(F)c1cccc(N2CCN(CC3CC3)CC2)c1 [compound 11] | 30 | – | – | –
31 | CC1CN(CC2CC2)CCN1CC1CC1 (centres unmarked) [compound 13] | 104 | 3.63 | 36 | –
32 | CCOC(=O)Oc1c(OC)cc(C(=O)N2CCN(CC3CC3)CC2)cc1OC [compound 18] | 225 | – | – | –
33 | COc1cc(C(=O)N2CCN(CC3CC3)CC2C)cc(OC)c1OC (centres unmarked) [compound 38] | 130 | – | – | –
34 | CC(CN1CCN(CC2CC2)CC1)C(=O)NCc1ccccc1 (centres unmarked) [compound 8] | 245 | 53.7 | 57 | –
35 | OCCN1CCN(CC2CC2)CC1 [Code No. 5] | 460 | – | – | –
36 | CC1CN(CC2CC2)CCN1CCCN1CCOCC1 (centres unmarked) [compound 34] | 215 | 5.13 | 24 | –
37 | COc1cc(C=CC(=O)N2CCN(CC3CC3)CC2)cc(OC)c1OC [compound 20] | 52 | 776 | 49 | –
